Test results as given in PubChem BioAssay AID602217 (Sanford-Burnham Center for Chemical Genomics, 2012).
Active and inactive are the calls of the source.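 The calls were made as follows: active = IC50 at or below a set limit; inactive = the rest.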

tested on: HL-1 cardiomyocytes, 2-deoxyglucose injury, ATPLite luminescence, 2 h; assay: 2-DG-induced HL-1 ATP loss suppression – cell-based, ATPLite luminescence, dose response (AID 602217);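 also: cells kept in glucose-free DMEM during the 2-deoxyglucose injury; potency of protection where actives preserve ATP signal against 2-deoxyglucose stress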

SMILES	IC50
CC(C)(C)OC(=O)C[C@@H]1C/C=C\C[C@@H](CC(=O)N[C@@H](CO)Cc2ccccc2)C(=O)NC[C@@H](c2ccccc2)OC1=O	> 79 µM (inactive)
COc1cc(-c2cc(NC(C)=O)c3ncc(-c4ccc(C(C)=O)cc4)n3c2)cc(OC)c1OC	> 79 µM (inactive)
O=C(Nc1ccccc1)c1nc[nH]c1C(=O)NCCCCCCNC(=O)c1[nH]cnc1C(=O)Nc1ccccc1	> 79 µM (inactive)
CCOc1ncccc1C(=O)Nc1cccc(-c2nc3cccnc3s2)c1	> 79 µM (inactive)
Cc1nn(-c2ccccc2)c(N2CCCC2)c1/C=N/NC(=O)c1cc(-c2ccccn2)nc2ccccc12	19.5 µM
CNC(=O)COC(=O)/C=C/c1cn(-c2ccccc2)nc1-c1ccc(C)o1	> 79 µM (inactive)
COc1ccc2c(c1OC)C(=O)N1c3ccccc3C(=O)N(c3ccccc3)C21 (stereo not given)	11 µM
COc1ccc(-c2cc(-c3nnc(COC(=O)C4CC4C)o3)c3ccccc3n2)cc1OC (stereo not given)	> 79 µM (inactive)
CN(C(=O)c1sc2nc(N3CCOCC3)c3c(c2c1N)CCCC3)c1ccccc1	> 79 µM (inactive)
CC(=O)c1cccc(-c2cnc3c(NC=O)cc(-c4ccccc4F)cn23)c1	> 79 µM (inactive)
O=C(NCC(=O)N(Cc1cccs1)C(C(=O)NC1CCCCC1)c1ccco1)c1ccco1 (stereo not given)	> 79 µM (inactive)
Cc1cc(C)c(C)c(S(=O)(=O)N2CCN(C(=O)c3cc(=O)[nH]c4ccccc34)CC2)c1C	23.7 µM (inactive)
CS(=O)(=O)c1ccc(-c2cnc3c(NC=O)cc(-c4ccsc4)cn23)cc1	> 79 µM (inactive)
COc1cc(-c2cc(C(=O)Nc3ccccc3N3CCOCC3)c3ccccc3n2)cc(OC)c1OC	13.1 µM
COc1cc(NC(=O)c2cc3ccccc3cc2OC)ccc1NC(=O)c1cccs1	5.85 µM
CC(=O)c1ccc(-c2cnc3c(NC=O)cc(-c4cccc(C(=O)N(C)C)c4)cn23)cc1	> 79 µM (inactive)
CC(C)(C)NC(=O)COC(=O)c1c2c(nc3ccccc13)CCC2	23.7 µM (inactive)
CCn1nc(C(=O)Nc2nc(-c3ccccn3)cs2)c2ccccc2c1=O	13 µM

SMILES	IC50
COc1cccc(Nc2nc(-c3sc(NC(=O)c4ccco4)nc3C)cs2)c1	26.4 µM (inactive)
COc1cccc(-c2cnc3c(NC(C)=O)cc(-c4cccc(NS(C)(=O)=O)c4)cn23)c1	> 79 µM (inactive)
O=C(Nc1ccccc1)c1nc[nH]c1C(=O)NCCCCNC(=O)c1[nH]cnc1C(=O)Nc1ccccc1	6.36 µM
CN(C)S(=O)(=O)c1ccc2[nH]cc(/C=C/c3nc4ccccc4c(=O)n3-c3ccccc3)c2c1	5 µM
O=C(C(=O)N(Cc1ccccc1)Cc1ccccc1)c1c(-c2ccccc2)[nH]c2ccccc12	4.8 µM
NC(=O)c1nsc(C(=O)N(c2ccccc2)C(C(=O)NC2CCCC2)c2ccc3ncccc3c2)c1N (stereo not given)	13.2 µM
COc1ccc(-c2csc(NC(=O)c3ccc(OCC(=O)N4CCOCC4)c(OC)c3)n2)cc1OC	> 79 µM (inactive)
COc1cccc(-c2cnc3c(NC=O)cc(-c4cccc(NC(C)=O)c4)cn23)c1	17.6 µM
Cc1cc(C)c2c(N)c(C(=O)N/N=C/c3cccnc3)sc2n1	> 79 µM (inactive)
O=C(Nc1cccc(NC(=O)c2ccc([N+](=O)[O-])o2)c1)c1ccco1	> 79 µM (inactive)
CCN1C(=O)/C(=C/c2nc3ccccc3c(=O)[nH]2)c2ccccc21	> 79 µM (inactive)
COc1ccc(-c2cc(-c3nnc(COC(=O)C4CC4)o3)c3ccccc3n2)cc1OC	62.9 µM (inactive)
COc1cc(/C=N/NC(=O)NC23CC4CC(CC(C4)C2)C3)ccc1OCC(N)=O	> 79 µM (inactive)
O=C(NCC(=O)N(Cc1ccccc1)C(C(=O)NC1CCCCC1)c1ccco1)c1ccco1 (stereo not given)	> 79 µM (inactive)
C=CCn1cnc2c(c1=O)c1nc3ccccc3nc1n2/N=C/c1cc(OC)c(OC)c(OC)c1	5.93 µM
COc1cc(-c2cnc3c(NC=O)cc(-c4cccnc4)cn23)cc(OC)c1OC	7.57 µM
COc1ccc(C(=O)O/N=C(/c2ccccc2)c2ccncc2)cc1OC	> 79 µM (inactive)
